The source of these data is patent US20020183384A1, “Methods of treating nuclear factor-kappa B mediated diseases and disorders” (priority 2001, published 2002).

SMILES strings stand for the structures. Like-named read-outs stand apart in the source and are kept apart here.

This experiment deals with NF-κB mediated transcription. The experiment is described as follows: NF-κB driven β-lactamase reporter assay in ECV-304 NF-κB.βlaZ cells (AURORA CCF2 fluorescence). The class given is cell-based, human. As to conditions: 10 μM compound, ECV-304 NF-κB.βlaZ cells stimulated with 10 ng/mL TNF-α or 100 pg/mL IL-1β, 6 hours at 37° C., inhibition of maximum blue/green ratio; for inhibition at 10 µM: Homo sapiens, read-out: Percent Inhibition at 10 μM. Put shortly:
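Blue/green (460/530 nm, excitation 395 nm) CCF2 emission ratio quantified NF-κB-driven β-lactamase expression in the stably transfected endothelial-like ECV-304 clone 1E8.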

As for `CC(C)c1cc(C(C)C)c(CC(=O)NS(=O)(=O)Oc2c(C(C)C)cc(NC(=O)[C@@H](N)CCCCN)cc2C(C)C)c(C(C)C)c1` [Example 197, [2-(2,4,6-Triisopropyl-phenyl)-acetyl]-sulfamic acid 4-((S)-2,6-diamino-hexanoylamino)-2,6-diisopropyl-phenyl ester; compound with generic inorganic neutral component], the “Percent Inhibition at 10 μM” value is given as below 10%.
Consider `CC(C)c1cc(C(C)C)c(CC(=O)NS(=O)(=O)Oc2c(C(C)C)cc(NC(=O)CNC(=O)OC(C)(C)C)cc2C(C)C)c(C(C)C)c1` [Example 198, [(3,5-Diisopropyl-4-{[(2,4,6-triisopropyl-phenyl)-acetyl]sulfamoyloxy}-phenylcarbamoyl)-methyl]-carbamic acid tert-butyl ester], for which the inhibition at 10 µM (ECV-304, 6 h) came out at 75.8%.
Regarding `CCCCCCCCCCCCOS(=O)(=O)NC(=O)Cc1c(C(C)C)cc(C(C)C)cc1C(C)C` [Example 199, [(2,4,6-Triisopropyl-phenyl)-acetyl]-sulfamic acid dodecyl ester], the inhibition at 10 µM (ECV-304, 6 h) was found to be 50.7%.
On the same count and under the same terms, the same measure for `CC(C)c1cc(C(C)C)c(CC(=O)NS(=O)(=O)Oc2c(C(C)C)cc(NC(=O)CN)cc2C(C)C)c(C(C)C)c1` [Example 200, [(2,4,6-Triisopropyl-phenyl)-acetyl]-sulfamic acid 4-(2-amino-acetylamino)-2,6-diisopropyl-phenyl ester]: 72.7%; for `CSCC[C@H](N)C(=O)Nc1cc(C(C)C)c(OS(=O)(=O)NC(=O)Cc2c(C(C)C)cc(C(C)C)cc2C(C)C)c(C(C)C)c1` [Example 201, [2-(2,4,6-Triisopropyl-phenyl)-acetyl]-sulfamic acid 4-((S)-2-amino-4-methylsulfanyl-butyrylamino)-2,6-diisopropyl-phenyl ester]: 87.1%.
With `CC(C)c1cc(C(C)(C)O)cc(C(C)C)c1CC(=O)NS(=O)(=O)Oc1c(C(C)C)cccc1C(C)C` [Example 202, {[4-(1-Hydroxy-1-methyl-ethyl)-2,6-diisopropyl-phenyl]-acetyl}-sulfamic acid 2,6-diisopropyl-phenyl ester], the inhibition at 10 µM (ECV-304, 6 h) is 25.4%.
Still for that read-out and setting: the figure for `CC(C)c1cc(C(C)C)c(CC(=O)NS(=O)(=O)Oc2c(C(C)C)cc(Br)cc2C(C)C)c(C(C)C)c1` [Example 203, [(2,4,6-Triisopropyl-phenyl)-acetyl]-sulfamic acid 4-bromo-2,6-diisopropyl-phenyl ester] is 52.2%; for `CC(C)c1cc(C(C)C)c(CC(=O)NS(=O)(=O)Oc2c(C(C)C)cc(NC(=O)C(N)Cc3c[nH]c4ccccc34)cc2C(C)C)c(C(C)C)c1` (stereo not drawn) [Example 204, [(2,4,6-Triisopropyl-phenyl)-acetyl]-sulfamic acid 4-[2-amino-3-(1H-indol-3-yl)-propionylamino]-2,6-diisopropyl-phenyl ester] it is 70%.
Still for that read-out and setting: the figure for `CC(C)c1cc(C(C)C)c(CC(=O)NS(=O)(=O)Oc2c(C(C)C)cc(OCCCN(C)C)cc2C(C)C)c(C(C)C)c1` [Example 205, [(2,4,6-Triisopropyl-phenyl)-acetyl]-sulfamic acid 4-(3-dimethylamino-propoxy)-2,6-diisopropyl-phenyl ester] is 11.7%; for `CC(C)c1cc(C(C)C)c(CC(=O)NS(=O)(=O)Oc2c(C(C)C)cc(NC(=O)[C@@H](C)N)cc2C(C)C)c(C(C)C)c1` [Example 206, [2-(2,4,6-Triisopropyl-phenyl)-acetyl]-sulfamic acid 4-((R)-2-amino-propionylamino)-2,6-diisopropyl-phenyl ester; compound with trifluoro-acetic acid] it is 47.9%; for `CC(C)c1cc(C(C)C)c(CC(=O)NS(=O)(=O)Oc2c(C(C)C)cc(NC(=O)C(C)(C)N)cc2C(C)C)c(C(C)C)c1` [Example 207, [(2,4,6-Triisopropyl-phenyl)-acetyl]-sulfamic acid 4-(2-amino-2-methyl-propionylamino)-2,6-diisopropyl-phenyl ester] it is 60.3%.
Same read-out and setting: the figure for `CC(C)c1cc(C(C)C)c(CC(=O)NS(=O)(=O)Oc2c(C(C)C)cc(OCCCN)cc2C(C)C)c(C(C)C)c1` [Example 208, [2-(2,4,6-Triisopropyl-phenyl)-acetyl]-sulfamic acid 4-(3-amino-propoxy)-2,6-diisopropyl-phenyl ester] is 22.4%.
For the compound `CC(C)c1cc(C(C)C)c(CC(=O)NS(=O)(=O)Oc2c(C(C)C)cc(SC#N)cc2C(C)C)c(C(C)C)c1` [Example 209, [(2,4,6-Triisopropyl-phenyl)-acetyl]-sulfamic acid 2,6-diisopropyl-4-thiocyanato-phenyl ester], for the setting “ECV-304, 6 h”, the inhibition at 10 µM was determined as 56.8%.
`Cc1cc(C(C)C)c(OS(=O)(=O)NC(=O)Cc2c(C(C)C)cc(C(C)C)cc2C(C)C)c(C(C)C)c1` [Example 210, [(2,4,6-Triisopropyl-phenyl)-acetyl]-sulfamic acid 2,6-diisopropyl-4-methyl-phenyl ester]: the inhibition at 10 µM (ECV-304, 6 h) amounted to 52.5%.
The same measure, in the same setting: the same measure for `CC(C)c1cccc(C(C)C)c1OS(=O)(=O)NC(=O)C1(c2ccc(N(C)C)cc2)CCCC1` [Example 211, [1-(4-Dimethylamino-phenyl)-cyclopentanecarbonyl]-sulfamic acid 2,6-diisopropyl-phenyl ester]: 24.6%; for `CC(C)c1cc(C(C)C)c(CC(=O)NS(=O)(=O)Oc2c(C(C)C)cc(C#N)cc2C(C)C)c(C(C)C)c1` [Example 212, [(2,4,6-Triisopropyl-phenyl)-acetyl]-sulfamic acid 4-cyano-2,6-diisopropyl-phenyl ester]: 60.2%; for `CC(C)c1cccc(C(C)C)c1OS(=O)(=O)NC(=O)C1(c2ccc([N+](=O)[O-])cc2)CCCC1` [Example 213, [1-(4-Nitro-phenyl)-cyclopentanecarbonyl]-sulfamic acid 2,6-diisopropyl-phenyl ester]: 19.7%.
Regarding `CSCCC(NC(=O)OC(C)(C)C)C(=O)Nc1cc(C(C)C)c(OS(=O)(=O)NC(=O)Cc2c(C(C)C)cc(C(C)C)cc2C(C)C)c(C(C)C)c1` (stereo not drawn) [Example 214, [1-(3,5-Diisopropyl-4-{[(2,4,6-triisopropyl-phenyl)-acetyl]sulfamoyloxy}-phenylcarbamoyl)-3-methylsulfanyl-propyl]-carbamic acid tert-butyl ester], under “ECV-304, 6 h”, the inhibition at 10 µM stood at 71.7%.
On the same count and under the same terms, the figure for `CC(C)c1cc(C(C)C)c(CC(=O)NS(=O)(=O)Oc2c(C(C)C)cc(NC(=O)Nc3c(C(C)C)cccc3C(C)C)cc2C(C)C)c(C(C)C)c1` [Example 215, [(2,4,6-Triisopropyl-phenyl)-acetyl]-sulfamic acid 4-[3-(2,6-diisopropyl-phenyl)-ureido]-2,6-diisopropyl-phenyl ester] is 74.7%; for `CC(C)C[C@H](N)C(=O)Nc1cc(C(C)C)c(OS(=O)(=O)NC(=O)Cc2c(C(C)C)cc(C(C)C)cc2C(C)C)c(C(C)C)c1` [Example 216, [2-(2,4,6-Triisopropyl-phenyl)-acetyl]-sulfamic acid 4-((S)-2-amino-4-methyl-pentanoylamino)-2,6-diisopropyl-phenyl ester; compound with trifluoro-acetic acid] it is 65.4%.
As for `CC(C)c1cccc(C(C)C)c1OS(=O)(=O)NC(=O)NCC1(c2ccc(N(C)C)cc2)CCCC1` [Example 217, Sulfamic acid, [[[[1-[4-(dimethylamino)phenyl]cyclopenty]methyl]-amino]carbonyl]-2,6-bis(1-methylethyl)phenyl ester], the “Percent Inhibition at 10 μM” value is 37.08%.
Regarding `CC(C)c1cc(C(C)C)c(CC(=O)NS(=O)(=O)Oc2c(C(C)C)cc(NC(=O)Nc3ccccc3)cc2C(C)C)c(C(C)C)c1` [Example 218, [(2,4,6-Triisopropyl-phenyl)-acetyl]-sulfamic acid 2,6-diisopropyl-4-(3-phenyl-ureido)-phenyl ester], under “ECV-304, 6 h”, the inhibition at 10 µM is below 10%.
Consider `CC(C)c1cc(C(C)C)c(CC(=O)NS(=O)(=O)Oc2c(C(C)C)cc(NC(=O)NC(C)(C)C)cc2C(C)C)c(C(C)C)c1` [Example 219, [(2,4,6-Triisopropyl-phenyl)-acetyl]-sulfamic acid 4-(3-tert-butyl-ureido)-2,6-diisopropyl-phenyl ester], for which, under “ECV-304, 6 h”, the inhibition at 10 µM worked out at 15.2%.
The same measure, in the same setting: the same measure for `CC(C)c1cc(C(C)C)c(CC(=O)NS(=O)(=O)Oc2c(C(C)C)cc(NC(=O)CCN)cc2C(C)C)c(C(C)C)c1` [Example 220, [2-(2,4,6-Triisopropyl-phenyl)-acetyl]-sulfamic acid 4-(3-amino-propionylamino)-2,6-diisopropyl-phenyl ester; compound with trifluoro-acetic acid]: 65.5%.
As for `CC(C)(C)c1cccc(C(C)(C)C)c1OC(=O)NS(=O)(=O)Nc1ccccc1Cc1ccccc1` [Example 221, Carbamic acid, [[[2-(phenylmethyl)phenyl]amino]sulfonyl]-, 2,6-bis(1,1-dimethylethyl)phenyl ester], the inhibition at 10 µM is 44.7%.
On to `CC(C)c1cccc(C(C)C)c1OS(=O)(=O)NC(=O)N1CCc2ccccc21` [Example 222, (2,3-Dihydro-indole-1-carbonyl)-sulfamic acid 2,6-diisopropyl-phenyl ester], for which the inhibition at 10 µM (ECV-304, 6 h) was below 10%.
`CC(C)c1cccc(C(C)C)c1OS(=O)(=O)NC(=O)NC(c1ccccc1)(c1ccccc1)c1ccccc1` [Example 223, Sulfamic acid, [[(triphenylmethyl)amino]carbonyl]-, 2,6-bis(1-methylethyl)phenyl ester]: the inhibition at 10 µM (ECV-304, 6 h) amounted to 68.2%.
